Test results from patent publication US10935560B2, “Method and kit for identifying lupus anticoagulant (LA) associated with antiphospholipid syndrome” (Instrumentation Laboratory Company, priority 2016, dated 2021).
Entries after “also recorded” stand apart in the source; their conditions may differ.

Legend:
Type in all cases: biochemical, human
[1] = tested on: LA positive plasma sample; assay: dRVVT Screen / dRVVT Confirm test, 1:1 mixing study; conditions: for NR of dRVVT test: 1000 ng/ml PPACK
Description: (§1) The results of the LA screening assays are expressed by Screen Ratio (Rs), an assay done in the presence of low levels of phospholipid, Confirm Ratio (Re), an assay done in the presence of elevated levels of phospholipid, Screen-to-Confirm Ratio (R) and Normalized Screen-to-Confirm Ratio (NR) defined as follows: […]
(§2) For each of the assays above, irrespective of the clotting inhibitor used in the assay, the measured screen assay clotting time of a patient sample is compared to the measured screen assay clotting time of normal platelet poor plasma and expressed as a ratio (Rs). Additionally, the measured confirm assay clotting time of a patient sample is compared to the measured confirm assay clotting time of normal platelet poor plasma and expressed as a ratio (Rc). A normalized ratio (NR) is expressed as Rs/Rc. The NR is compared to a cutoff ratio established from normal, healthy subjects.

[2] = tested on: normal pooled plasma (NPP); assay: as above
Description: as §1, §2

[3] = tested on: LA negative sample (platelet poor NPP); assay: APTT-based silica clotting time (SCT Screen / SCT Confirm) assay, 1:1 mixing study; conditions: for Screen-to-Confirm Ratio (R) of SCT Assay: LA negative sample
Description: as §1, §2
(§3) D-phenylalanyl-1-prolyl-1-arginine-chloromethyl ketone (PPACK) is a synthetic peptide that irreversibly binds to the catalytic site of thrombin. Referring to FIGS. 1-3, the use of PPACK in an SCT assay is shown where a plasma test sample was mixed with a LA negative plasma sample pool in a 1:1 ratio during testing (i.e., in a mixing study setting). By a mixing study, clotting factors that are present in normal plasma are added to the test plasma suspected of having a coagulation disorder.
(§4) Referring to FIGS. 1A-B, while the effect of PPACK on SCT Screen and SCT Confirm is similar for the LA negative sample, PPACK has much greater impact on SCT Screen than on SCT Confirm for the LA positive samples.

[4] = tested on: patient plasma samples (LA negative, factor deficient, LA positive); assay: HemosIL dRVVT Screen and dRVVT Confirm in the presence of PPACK, 1:1 mixing study setting, patient samples; conditions: 350 nM PPACK
Description: as §1
as §2, with “subjects. […]” for “subjects.”
The study reported the normalized ratio correctly for all plasma samples and addressed issues with factor deficiency (Table 2).

[5] = tested on: LA positive plasma sample; assay: APTT-based silica clotting time (SCT Screen / SCT Confirm) assay, 1:1 mixing study
Description: as §1, §2, §3, §4
The effect of PPACK on LA detection is further analyzed on the LA positive sample diluted with LA negative sample in different ratios (1:1 and 1:3 of LA positive: LA Negative). When the LA positive sample was diluted 4-fold with LA negative sample, the LA was not detectable in the absence of PPACK (NR: […]) thereby underscoring the increased sensitivity of the method disclosed herein.

[6] = sample 0114 LA NEG, LA Negative Pool
[7] = sample 0114 S03, FVIIIDef (con)
[8] = sample 0114 S04, FVIIIDef (con)
[9] = sample 0114 S05, FVIII (con)/vWF Def
[10] = sample 0114 S06, FVIII (con)/vWF Def

CC1CNc2c(cccc2S(=O)(=O)N[C@@H](CCCNC(=N)N)C(=O)N2CC[C@@H](C)C[C@@H]2C(=O)O)C1 (some centres unmarked) [argatroban]
Normalized ratio of dRVVT Assay ([1]; LA positive sample, 500 ng/ml argatroban (from 1.34)): 1.57 | Change of Screen-to-Confirm Ratio of dRVVT Assay ([1]; LA positive sample, argatroban): didn't change | Screen-to-Confirm Ratio of dRVVT Assay ([2]; 500 ng/ml argatroban (1.06 in the absence of argatroban)): 0.9

D-phenylalanyl-1-prolyl-1-arginine-chloromethyl ketone [PPACK]
Screen-to-Confirm Ratio (R) of SCT Assay ([3]; 100 nM PPACK (0.81 at 0 nM)): 0.83 | Screen-to-Confirm Ratio (R) of SCT Assay ([3]; 1000 nM PPACK (0.81 at 0 nM)): 0.78 | Change of Screen-to-Confirm Ratio of SCT Assay ([3]; NPP / LA negative sample, increasing PPACK concentrations): remained the same; also recorded: decreased slightly | Confirm [4, 6]: 50.4 s | Confirm (Rc) [4, 6]: 1.00 | S/C (NR) [4, 6]: 1.00 | S/C (R) [4, 6]: 0.98 | Screen [4, 6]: 49.6 s | Screen (Rs) [4, 6]: 1.00 | Confirm ([4]; sample 0114 S01, FVDef (con)): 62.8 s | Confirm (Rc) ([4]; sample 0114 S01, FVDef (con)): 1.25 | S/C (NR) ([4]; sample 0114 S01, FVDef (con)): 1.02 | S/C (R) ([4]; sample 0114 S01, FVDef (con)): 1.01 | Screen ([4]; sample 0114 S01, FVDef (con)): 63.3 s | Screen (Rs) ([4]; sample 0114 S01, FVDef (con)): 1.28 | Confirm ([4]; sample 0114 S02, FVDef (con)): 54.2 s | Confirm (Rc) ([4]; sample 0114 S02, FVDef (con)): 1.08 | S/C (NR) ([4]; sample 0114 S02, FVDef (con)): 0.88 | S/C (R) ([4]; sample 0114 S02, FVDef (con)): 0.87 | Screen ([4]; sample 0114 S02, FVDef (con)): 46.9 s | Screen (Rs) ([4]; sample 0114 S02, FVDef (con)): 0.95 | Confirm [4, 7]: 47.9 s | Confirm (Rc) [4, 7]: 0.95 | S/C (NR) [4, 7]: 1.05 | S/C (R) [4, 7]: 1.04 | Screen [4, 7]: 49.7 s | Screen (Rs) [4, 7]: 1.00 | Confirm [4, 8]: 48.5 s | Confirm (Rc) [4, 8]: 0.96 | S/C (NR) [4, 8]: 1.03 | S/C (R) [4, 8]: 1.02 | Screen [4, 8]: 49.3 s | Screen (Rs) [4, 8]: 0.99 | Confirm [4, 9]: 49.2 s | Confirm (Rc) [4, 9]: 0.98 | S/C (NR) [4, 9]: 1.00 | S/C (R) [4, 9]: 0.98 | Screen [4, 9]: 48.4 s | Screen (Rs) [4, 9]: 0.98 | Confirm [4, 10]: 48.9 s | Confirm (Rc) [4, 10]: 0.97 | S/C (NR) [4, 10]: 1.01 | S/C (R) [4, 10]: 0.99 | Screen [4, 10]: 48.6 s | Screen (Rs) [4, 10]: 0.98 | Confirm ([4]; sample 0114 S07, FIXDef (con)): 50.5 s | Confirm (Rc) ([4]; sample 0114 S07, FIXDef (con)): 1.00 | S/C (NR) ([4]; sample 0114 S07, FIXDef (con)): 0.97 | S/C (R) ([4]; sample 0114 S07, FIXDef (con)): 0.95 | Screen ([4]; sample 0114 S07, FIXDef (con)): 41.1 s | Screen (Rs) ([4]; sample 0114 S07, FIXDef (con)): 0.97 | Confirm ([4]; sample 0114 S08, FIXDef (con)): 48.9 s | Confirm (Rc) ([4]; sample 0114 S08, FIXDef (con)): 0.97 | S/C (NR) ([4]; sample 0114 S08, FIXDef (con)): 1.01 | S/C (R) ([4]; sample 0114 S08, FIXDef (con)): 0.99 | Screen ([4]; sample 0114 S08, FIXDef (con)): 48.5 s | Screen (Rs) ([4]; sample 0114 S08, FIXDef (con)): 0.98 | Confirm ([4]; sample 0114 S09, FXDef (con)): 59.2 s | Confirm (Rc) ([4]; sample 0114 S09, FXDef (con)): 1.17 | S/C (NR) ([4]; sample 0114 S09, FXDef (con)): 1.04 | S/C (R) ([4]; sample 0114 S09, FXDef (con)): 1.03 | Screen ([4]; sample 0114 S09, FXDef (con)): 60.7 s | Screen (Rs) ([4]; sample 0114 S09, FXDef (con)): 1.22 | Confirm ([4]; sample 0114 S10, FXDef (con)): 51.4 s | Confirm (Rc) ([4]; sample 0114 S10, FXDef (con)): 1.02 | S/C (NR) ([4]; sample 0114 S10, FXDef (con)): 1.01 | S/C (R) ([4]; sample 0114 S10, FXDef (con)): 0.99 | Screen ([4]; sample 0114 S10, FXDef (con)): 51.1 s | Screen (Rs) ([4]; sample 0114 S10, FXDef (con)): 1.03 | Confirm ([4]; sample 0114 S11, FXIDef (con)): 49.7 s | Confirm (Rc) ([4]; sample 0114 S11, FXIDef (con)): 0.99 | S/C (NR) ([4]; sample 0114 S11, FXIDef (con)): 1.00 | S/C (R) ([4]; sample 0114 S11, FXIDef (con)): 0.98 | Screen ([4]; sample 0114 S11, FXIDef (con)): 48.8 s | Screen (Rs) ([4]; sample 0114 S11, FXIDef (con)): 0.98 | Confirm ([4]; sample 0114 S12, FXIDef (con)): 47.7 s | Confirm (Rc) ([4]; sample 0114 S12, FXIDef (con)): 0.95 | S/C (NR) ([4]; sample 0114 S12, FXIDef (con)): 1.00 | S/C (R) ([4]; sample 0114 S12, FXIDef (con)): 0.98 | Screen ([4]; sample 0114 S12, FXIDef (con)): 46.8 s | Screen (Rs) ([4]; sample 0114 S12, FXIDef (con)): 0.94 | Confirm ([4]; sample 0114 S13, FXIIDef (con)): 45.3 s | Confirm (Rc) ([4]; sample 0114 S13, FXIIDef (con)): 0.90 | S/C (NR) ([4]; sample 0114 S13, FXIIDef (con)): 1.01 | S/C (R) ([4]; sample 0114 S13, FXIIDef (con)): 0.99 | Screen ([4]; sample 0114 S13, FXIIDef (con)): 44.9 s | Screen (Rs) ([4]; sample 0114 S13, FXIIDef (con)): 0.91 | Confirm ([4]; sample 0114 S14, FXIIDef (acq)): 53.4 s | Confirm (Rc) ([4]; sample 0114 S14, FXIIDef (acq)): 1.06 | S/C (NR) ([4]; sample 0114 S14, FXIIDef (acq)): 0.94 | S/C (R) ([4]; sample 0114 S14, FXIIDef (acq)): 0.93 | Screen ([4]; sample 0114 S14, FXIIDef (acq)): 49.4 s | Screen (Rs) ([4]; sample 0114 S14, FXIIDef (acq)): 1.00 | Confirm ([4]; sample 0114 S15, LA Postive): 49.7 s | Confirm (Rc) ([4]; sample 0114 S15, LA Postive): 0.99 | S/C (NR) ([4]; sample 0114 S15, LA Postive): 2.49 | S/C (R) ([4]; sample 0114 S15, LA Postive): 2.45 | Screen ([4]; sample 0114 S15, LA Postive): 121.8 s | Screen (Rs) ([4]; sample 0114 S15, LA Postive): 2.46 | Confirm ([4]; sample 0114 S16, LA Postive): 51.7 s | Confirm (Rc) ([4]; sample 0114 S16, LA Postive): 1.03 | S/C (NR) ([4]; sample 0114 S16, LA Postive): 2.70 | S/C (R) ([4]; sample 0114 S16, LA Postive): 2.66 | Screen ([4]; sample 0114 S16, LA Postive): 137.4 s | Screen (Rs) ([4]; sample 0114 S16, LA Postive): 2.77 | Confirm ([4]; sample 0114 S17, LA Postive): 49.8 s | Confirm (Rc) ([4]; sample 0114 S17, LA Postive): 0.99 | S/C (NR) ([4]; sample 0114 S17, LA Postive): 2.19 | S/C (R) ([4]; sample 0114 S17, LA Postive): 2.15 | Screen ([4]; sample 0114 S17, LA Postive): 107.3 s | Screen (Rs) ([4]; sample 0114 S17, LA Postive): 2.16 | Normalized Ratio (NR) of SCT Assay ([5]; LA positive sample 1:1 diluted with NPP, 1000 ng/ml PPACK, automated mixing study 1:1): 1.82 | Normalized Ratio (NR) of SCT Assay ([5]; LA positive sample 1:3 diluted with NPP, 1000 ng/ml PPACK, automated mixing study 1:1): 1.46 | Normalized Ratio (NR) of SCT Assay ([5]; LA positive sample diluted 4-fold with LA negative sample, 1000 nM PPACK (1.08 in the absence of PPACK)): 1.46 | Normalized Ratio (NR) of SCT Assay ([5]; LA positive sample undiluted, 1000 ng/ml PPACK, automated mixing study 1:1 with NPP/PPACK): 2.34 | Screen-to-Confirm Ratio (R) of SCT Assay ([5]; LA positive sample, 1000 nM PPACK (1.09 in the absence of PPACK)): 1.82 | NR of dRVVT test ([1]; LA positive sample 1:1 diluted with NPP, automated mixing study 1:1): 1.42 | NR of dRVVT test ([1]; LA positive sample 1:3 diluted with NPP, automated mixing study 1:1): 1.19 | NR of dRVVT test ([1]; LA positive sample undiluted, automated mixing study 1:1 with NPP/PPACK): 1.76 | Screen-to-Confirm Ratio of dRVVT test ([1]; LA positive sample, increasing PPACK concentrations (from 1.42)): 1.58 | Screen-to-Confirm Ratio of dRVVT test ([2]; increasing PPACK concentrations (from 1.02)): 0.91

hirudin
Normalized ratio of dRVVT Assay ([1]; LA positive sample, 200 ng/ml hirudin alone): 1.72 | Normalized ratio of dRVVT Assay ([1]; LA positive sample, 1000 ng/ml hirudin (1.39 without thrombin inhibitor)): 1.81 | Screen-to-Confirm Ratio of dRVVT Assay ([1]; LA positive sample, 1000 ng/ml hirudin (1.41 in the absence of hirudin)): 2.14 | Screen-to-Confirm Ratio of dRVVT Assay ([2]; 1000 ng/ml hirudin (1.02 in the absence of hirudin)): 1.18
